In a melting point compilation (Tetko et al.; mined from patent text by program, amines drawn as free bases though some values may be those of a salt):

Compound	melting point
CC(=O)Nc1c([N+](=O)[O-])cnn1-c1c(F)c(F)c(C(F)(F)F)c(F)c1F	136 to 138 °C
C=CCOC(=O)C1=C(C)NC(C)=C(C(=O)OC)C1c1cccc([N+](=O)[O-])c1 (single isomer, unassigned; (-))	215 to 217 °C
CN1c2ccccc2C(c2ccccc2Cl)=Nc2cccnc21	132 to 133 °C
CS(=O)(=O)c1ccc(C=Cc2cc(=O)cc(-c3ccccc3)o2)cc1	239 to 241 °C
COc1ccc(C(O)(c2ccc3nc(Cl)nc(-c4cccc(Cl)c4)c3c2)c2cncn2C)cc1 (stereo not given)	144 °C
CC1(C)Cc2c(ccc3c2C(c2cccc(-c4ccc(NC(=O)OCc5ccccc5)cc4)c2)=NCC3(C)C)O1	126 to 129 °C
CCCNC(=O)ON(C(=O)NCCC)C(=O)C1CC1	76 to 78 °C
Oc1ccc(F)c2c1C[C@@H](N(C1CCC1)C1CCC1)CO2	170 to 172 °C
COCCOC(=O)C1=NNC(C)=C(C(=O)OC(C)C)C1c1cccc([N+](=O)[O-])c1 (stereo not given)	165 °C
O=C(O)c1csnc1-c1cccc(Cl)c1	215 to 216 °C
CCCCc1oc2ccccc2c1/C=N/OCCCOc1ccc(C(=O)O)c(NC(=O)c2ccc(C(C)(C)C)cc2)c1	181 to 182 °C
CC(=O)NCC1CC(c2ccc(N3CCS(=O)CC3)c(F)c2)=NO1 (stereo not given)	204 to 205 °C
CCOc1cc2c(cc1OC)C(c1ccc(C(=O)N3CCOCC3)cc1)=N[C@@H]1CCOC[C@H]21	116 to 120 °C
Cc1nn(C)c(Cl)c1S(=O)(=O)Nc1ccc(Cl)cc1C(=O)Nc1ccc(S(=O)(=O)N2CCSCC2)cc1	215 to 216 °C
N#Cc1nn(-c2c(Cl)cc(C(F)(F)F)cc2Cl)c(-n2cncn2)c1S(=O)(=O)C(F)(F)F	172 to 174 °C
CCCc1c(OCCCOc2c(C(C)=O)ccc(OCC(=O)O)c2CCC)ccc(C(C)=O)c1O	124 to 125 °C
C(=C1CCNCC1)c1ccc(C2=NCCO2)cc1	110 °C
COc1ccc(COCc2nc(C(C)C)c(I)[nH]2)cc1	78 to 79 °C
C[C@H]1Oc2ccc(Br)cc2C(=O)N2CCCC[C@@H]12 (racemic)	105 to 106 °C

Compound	melting point
O=C(O)c1cn(-c2ccc(F)cc2F)c2cc(N3CCC4(C3)OCCCO4)c(F)cc2c1=O	168 to 170 °C
CC(C)(CF)c1cc(Cl)nnc1Cl	36 to 38 °C
Fc1ccc2[nH]c(CN3C[C@@H]4C[C@H]3CN4c3ccccn3)cc2c1	211 to 214 °C
COc1ccc(C=Cc2c(Cl)cncc2Cl)c2c1OC1(CCCC1)O2	100 to 101 °C
NC(=O)CC[C@H]1CC[C@@H](c2ccc(F)cc2)N1S(=O)(=O)c1ccc(Cl)cc1 (racemic)	114 °C
O=Cc1ccc(C#Cc2ccc(Cl)cc2)cc1	123 °C
Cc1ccc2[nH]c3c(C(=O)O)cccc3c2c1Cl	305 °C
COC(=O)C=C(Nc1ccc2[nH]c(=O)oc2c1)C(=O)OC	172 °C
CCC(CC)c1ccc(CO)c2nc(Oc3c(C)cc(Cl)cc3Cl)n(C)c12	141 to 143 °C
O=C(Cn1ccnc1[N+](=O)[O-])NCC(F)(F)C(F)(F)F	136 to 137 °C
COc1cc(OC)nc(-n2c(SC)nc3ccccc32)n1	135 to 137 °C
CC(CCOS(C)(=O)=S)(C(=O)O)C(=O)O (stereo not given)	109 to 111 °C
NC(=O)c1nnn(C2OC(CO)C(O)C2O)c1N (stereo not given)	159 to 161 °C
COc1cc2cc3ncc(C#N)c(Nc4ccc(Oc5ccccc5)cc4)c3cc2cc1OC	> 265 °C
OCc1cccc(-c2coc(-c3cn([C@H]4CN5CCC4CC5)nn3)c2)c1	212 °C
Cc1nn(CCO)c(C)c1S(=O)(=O)c1cc(Cl)cc(Cl)c1	199 to 200 °C
O=[N+]([O-])c1cccc(-c2cc3c(O)ncnc3o2)c1	> 300 °C
Cc1ccc(S(=O)(=O)C(CCl)Sc2cccc(C)c2)cc1 (stereo not given)	80 to 97 °C
CCCCOc1cc(/C=C(\OCC)C(=O)O)ccc1OCCc1ccc(OS(=O)(=O)CCCC)c(Cl)c1	80 °C

Compound	melting point
COc1ccc2c(c1)OC(C(=O)O)C2 (racemic)	108 to 110 °C
COc1ccc2onc(CC(N)=NO)c2c1	180 to 183 °C
CNC(=S)NCc1cc(-c2ccc(Cl)cc2)no1	135 °C
FC(F)(F)c1ccc(/C=C/c2nc(COc3ccc(CCCn4ccnn4)cc3)co2)cc1	157 to 158 °C
CNc1nc(-c2cccc(-c3ccccc3)c2)c2cc(OC)c(OC)cc2n1	183 to 185 °C
C=C(C)C(=O)Oc1cccc(O)c1O	100 to 102 °C
CC(=O)c1cc2ccccc2cn1	84.4 to 86.8 °C
O=Cc1ccc(OC2CCCC2)c2oc3ccc([N+](=O)[O-])cc3c12	230 to 240 °C
O=C(O)c1cccc2[nH]cc(Cc3ccc(OCc4ccc5ccccc5n4)cc3)c12	209 to 211 °C
Cc1cc(-c2ncn3c(C(F)(F)F)cc(-c4ccc(C(F)(F)F)c(C)c4)nc23)ccn1	243 °C
CC(C)(C)OC(=O)NC1(C(=O)NCC(F)(F)F)CC1	166 to 167 °C
COC(=O)c1cn2c(NCCCCCCNS(=O)(=O)c3ccccc3[N+](=O)[O-])nsc2n1	148 to 149 °C
Cn1ccc(NC(=S)S)n1	79 to 82 °C
CCOC(=O)Cc1nn(Cc2ccc(Cl)c(Cl)c2)c(=O)c2c(C)cccc12	134 to 137 °C
CCOc1nn(-c2ccc(C(F)(F)F)cn2)cc1CCCOc1ccc(CCC(=O)O)cc1O	124 to 125 °C
COc1c(C)c(N2CCN(c3ccc4c(c3)OC(F)(F)O4)CC2)c(C)c2c1OC(C)(C)C2	149 to 151 °C
O=C1CCC(CN2C(=O)C3(COc4cc5c(cc43)OCO5)c3ccccc32)N1 (stereo not given)	121 to 130 °C
CCN(C)C1=NS(=O)(=O)c2ccc(Cl)cc2N1	> 220 °C
Fc1cc(Cl)ccc1-n1nc2c(c1Br)CCC2	106 to 110 °C

Now from value to molecule:

melting point	Compound
90 to 92 °C	CC[C@H](C)[C@H](NC(=O)O[C@@H](CC(C)C)C(=O)OCc1ccccc1)C(=O)NC(C)C
130 to 133 °C	CC1Cc2ccc(Br)cc2C(c2ccc([N+](=O)[O-])cc2)O1 (stereo not given)
267 °C	N=C(N)NCCNc1c(C(=O)O)cnc2ccccc12
> 250 °C	NC(=O)c1cc2c(Oc3ccc(Cl)cc3)c[nH]c(=O)c2s1
48.6 to 50.2 °C	CCCCOC(=O)CCCCCCCCCCCOCC(O)CNCCO (stereo not given)
177 °C	COC(=O)c1cnc(S)n1C1CC(C)c2ccccc21 (stereo not given)
154 to 156 °C	CC(C)(C)OC(=O)N1C(=O)C2(COc3cc4c(cc32)OCO4)c2c(Br)cccc21 (stereo not given)
65 to 67 °C	CCCCCC1=C(CCCCC)CC(CNC(=O)Nc2c(C(C)C)cccc2C(C)C)SC1 (stereo not given)
144 to 146 °C	CC(c1ccc(OC(=O)CCl)cc1)(c1ccc(OC(=O)CCl)cc1)c1ccc(OC(=O)CCl)cc1
201 to 202 °C	CS(=O)(=O)c1ccc(-c2cc(C(F)F)nn2-c2ccc(F)cc2)cc1F
111 to 113 °C	O=C(O)CCC/C=C\[C@@H]1C[C@@H](NS(=O)(=O)c2ccc(Cl)cc2)CN1S(=O)(=O)c1ccc(Cl)cc1
167 to 170 °C	CCc1cc(O)cc(C)c1N
130 to 132 °C	CC(=O)c1ccccc1Nc1c(Cl)ccc(C)c1Cl
170 to 172 °C	CCn1ncc2c(NCc3ccc(OCCN4CCOCC4)cc3)c3ccccc3nc21
207 to 208 °C	Nc1ncnc2c1nnn2C1C=CCC1 (stereo not given)
198 to 200 °C	COC(=O)C(=Cc1ccc(OC)c(OC)c1)NC(C)=O
333 to 335 °C	O=c1c2c(CCc3ccccc3[N+](=O)[O-])n[nH]c2c2cccnc2n1-c1ccccc1
115 to 116 °C	Cc1c(N)cc(C(C)(C)C)c2c1CC(C)(C)O2
220 to 223 °C	O=C1COc2ccc(NCC(=O)N3CCC(Cc4ccc(F)cc4)CC3)cc2N1
190 to 193 °C	CCCCc1nc2c(N)nc3ccccc3c2n1CCCCS(=O)(=O)c1ccc(F)cc1F
232 to 233 °C	O=C1N(Cc2ccccn2)c2ccccc2C12COc1cc3nccnc3cc12 (stereo not given)
175 to 177 °C	CCCCCC(CC(=O)Nc1cc(C(N)=O)ccc1C(C)(C)C)c1ccc(C)cc1OC (stereo not given)

melting point	Compound
218 to 220 °C	O=C(Nc1cccc(Br)n1)Nc1cccc2c1C1CCCCN1C2=O (stereo not given)
154 to 156 °C	CCCCOC(=O)N(C)C(CNC(=O)CC1CC(c2ccc(C#N)cc2)=NO1)C(=O)O (stereo not given)
168 °C	COc1ccc(OC)c(S(=O)(=O)c2ccc(Cl)cc2NC(=O)N[C@@H](Cc2ccc(NC(=O)c3c(Cl)cncc3Cl)cc2)C(=O)O)c1
152 to 153 °C	Cc1ccc(N2N=C3c4ccncc4CCC3CC2=O)cc1 (stereo not given)
213 to 215 °C	CCN(CC)CC1CCCCN1CC(=O)N1c2nc(C)cc(C)c2NC(=O)c2cccc(C)c21 (stereo not given)
152 to 153 °C	N#Cc1ccccc1-c1ccc(CO)cn1
202 to 203 °C	Cc1nc(-c2ccc(O)cc2)oc1C
78 to 80 °C	C=CCOc1ccc2sc(=O)oc2c1
87 to 89 °C	CC1C(=O)Oc2cc(C3CCCCC3)ccc21 (stereo not given)
108 to 110 °C	CC(C)(C)c1ccc(CN(O)Cc2ccc(C(C)(C)C)cc2)cc1
103 °C	COCCCN1CCC(CNC(=O)c2cc(Cl)c(N)nc2OC)CC1
99 to 100 °C	CC(NC(=S)NC(COC(=O)C(C)(C)C)Cc1ccccc1)c1ccc([N+](=O)[O-])cc1 (stereo not given)
75 to 76 °C	CO[C@@H]1[C@H](O)[C@@H](CO)O[C@H]1n1cnc2c(N[C@H](C)Cc3sccc3Cl)ncnc21
57 to 58 °C	BrCCC1(c2ccccc2)OCCO1
194 °C	Cc1ccc(S(=O)(=O)NC(=O)OCCc2ccc(-n3c(-c4ccccc4)nc4c(C)nc(C)cc43)cc2)cc1
180 to 181 °C	NCC1CCc2[nH]c3cc(Cl)c(F)cc3c2C1 (stereo not given)
170 to 171 °C	CCCN(C(N)=S)c1cccc2ccccc12
59 °C	CCCCCCCCN1N=C(C)CC1=O
89 to 91 °C	CCOc1ccc(CCCOc2c(CC(=O)O)cccc2OC)c(Oc2ccc(Cl)cc2Cl)n1
207 to 209 °C	O=C1CCCC(=O)N1c1ccc([N+](=O)[O-])cc1
232 °C	O=C(NC(=O)c1c(Cl)cccc1Cl)Nc1ccc(Cl)c(Cl)c1
